Measured values: PMC10410761 (Proceedings of the National Academy of Sciences of the …, 2023)

Legend:
NaV1.7 [1] = assay: Whole-cell voltage clamp, sodium currents in rat DRG neurons; assay type: cell-based; conditions: Pitstop2 20 µM, 30 min before recording, rat DRG neurons
NaV1.7 [2] = target: NaV1.7 (Rattus norvegicus, UniProt O08562); assay: as above; assay type: cell-based; conditions: Pitstop2 20 µM, vs AAV-SCR control
Sequence of NaV1.7 (Rattus norvegicus, UniProt O08562) (O08562 whole entry): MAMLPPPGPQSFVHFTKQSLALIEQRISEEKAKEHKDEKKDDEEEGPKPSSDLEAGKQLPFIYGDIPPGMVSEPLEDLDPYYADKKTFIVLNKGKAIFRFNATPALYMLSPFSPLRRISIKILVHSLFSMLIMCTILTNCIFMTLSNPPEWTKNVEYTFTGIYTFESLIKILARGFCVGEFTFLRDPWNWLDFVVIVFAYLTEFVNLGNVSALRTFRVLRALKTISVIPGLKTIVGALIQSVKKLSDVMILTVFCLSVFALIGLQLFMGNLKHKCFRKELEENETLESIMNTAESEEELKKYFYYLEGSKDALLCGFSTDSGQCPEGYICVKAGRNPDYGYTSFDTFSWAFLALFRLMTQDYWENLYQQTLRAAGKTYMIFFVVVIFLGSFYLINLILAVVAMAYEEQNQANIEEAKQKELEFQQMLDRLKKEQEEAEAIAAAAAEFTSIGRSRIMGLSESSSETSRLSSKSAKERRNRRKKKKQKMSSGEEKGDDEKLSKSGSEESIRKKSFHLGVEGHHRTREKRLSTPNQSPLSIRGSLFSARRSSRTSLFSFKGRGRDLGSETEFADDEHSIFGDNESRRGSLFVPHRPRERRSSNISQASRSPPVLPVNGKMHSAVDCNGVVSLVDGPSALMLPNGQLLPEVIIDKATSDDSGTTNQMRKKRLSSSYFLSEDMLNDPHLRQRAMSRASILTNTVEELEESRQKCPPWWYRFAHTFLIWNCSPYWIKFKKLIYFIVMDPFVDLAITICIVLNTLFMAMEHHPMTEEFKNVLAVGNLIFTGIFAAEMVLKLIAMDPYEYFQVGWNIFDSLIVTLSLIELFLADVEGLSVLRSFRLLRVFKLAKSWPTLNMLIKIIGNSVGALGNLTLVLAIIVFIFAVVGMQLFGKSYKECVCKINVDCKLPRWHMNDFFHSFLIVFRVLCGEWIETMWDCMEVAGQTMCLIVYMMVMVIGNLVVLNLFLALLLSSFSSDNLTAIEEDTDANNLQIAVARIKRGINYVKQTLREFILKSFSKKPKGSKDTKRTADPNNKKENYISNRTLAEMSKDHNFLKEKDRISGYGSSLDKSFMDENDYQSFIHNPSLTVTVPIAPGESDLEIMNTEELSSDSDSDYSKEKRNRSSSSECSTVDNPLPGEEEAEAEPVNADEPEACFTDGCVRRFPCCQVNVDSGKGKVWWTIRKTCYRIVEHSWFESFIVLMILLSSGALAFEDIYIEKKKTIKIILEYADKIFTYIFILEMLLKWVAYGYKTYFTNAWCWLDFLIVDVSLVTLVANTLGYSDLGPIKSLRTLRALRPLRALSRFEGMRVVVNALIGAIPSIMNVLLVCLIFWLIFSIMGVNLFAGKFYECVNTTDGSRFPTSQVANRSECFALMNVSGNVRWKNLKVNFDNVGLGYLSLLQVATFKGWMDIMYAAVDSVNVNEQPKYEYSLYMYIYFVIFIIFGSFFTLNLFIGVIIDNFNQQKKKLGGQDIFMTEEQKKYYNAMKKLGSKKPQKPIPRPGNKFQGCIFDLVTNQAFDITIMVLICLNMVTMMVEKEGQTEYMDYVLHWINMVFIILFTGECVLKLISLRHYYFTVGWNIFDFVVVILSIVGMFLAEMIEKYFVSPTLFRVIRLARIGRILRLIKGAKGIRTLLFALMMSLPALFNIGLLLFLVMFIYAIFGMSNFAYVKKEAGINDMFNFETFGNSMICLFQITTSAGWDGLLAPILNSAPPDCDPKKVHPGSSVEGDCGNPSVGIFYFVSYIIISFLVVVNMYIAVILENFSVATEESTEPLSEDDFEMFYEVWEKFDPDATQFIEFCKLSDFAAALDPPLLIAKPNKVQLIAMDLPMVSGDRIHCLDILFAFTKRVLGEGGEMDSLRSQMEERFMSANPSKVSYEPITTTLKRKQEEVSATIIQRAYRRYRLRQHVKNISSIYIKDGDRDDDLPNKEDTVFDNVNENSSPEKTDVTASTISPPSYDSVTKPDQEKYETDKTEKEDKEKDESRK

## O=C1NC(=NS(=O)(=O)c2cccc3ccccc23)S/C1=C\c1ccc(Br)cc1 [Pitstop2]
NaV1.7 [1]
  Decrease of sodium currents imposed by Myr-TAT-NaV1.7-CRS: rescued
NaV1.7 [2]
  Inhibition of NaV1.7 current in AAV-NaV1.7-CRS transfected DRG neurons: rescued
